SMILES strings stand for the structures. A value given as a limit tells only on which side of the number the result lay.

T1 sequence (Q8NER1 whole entry): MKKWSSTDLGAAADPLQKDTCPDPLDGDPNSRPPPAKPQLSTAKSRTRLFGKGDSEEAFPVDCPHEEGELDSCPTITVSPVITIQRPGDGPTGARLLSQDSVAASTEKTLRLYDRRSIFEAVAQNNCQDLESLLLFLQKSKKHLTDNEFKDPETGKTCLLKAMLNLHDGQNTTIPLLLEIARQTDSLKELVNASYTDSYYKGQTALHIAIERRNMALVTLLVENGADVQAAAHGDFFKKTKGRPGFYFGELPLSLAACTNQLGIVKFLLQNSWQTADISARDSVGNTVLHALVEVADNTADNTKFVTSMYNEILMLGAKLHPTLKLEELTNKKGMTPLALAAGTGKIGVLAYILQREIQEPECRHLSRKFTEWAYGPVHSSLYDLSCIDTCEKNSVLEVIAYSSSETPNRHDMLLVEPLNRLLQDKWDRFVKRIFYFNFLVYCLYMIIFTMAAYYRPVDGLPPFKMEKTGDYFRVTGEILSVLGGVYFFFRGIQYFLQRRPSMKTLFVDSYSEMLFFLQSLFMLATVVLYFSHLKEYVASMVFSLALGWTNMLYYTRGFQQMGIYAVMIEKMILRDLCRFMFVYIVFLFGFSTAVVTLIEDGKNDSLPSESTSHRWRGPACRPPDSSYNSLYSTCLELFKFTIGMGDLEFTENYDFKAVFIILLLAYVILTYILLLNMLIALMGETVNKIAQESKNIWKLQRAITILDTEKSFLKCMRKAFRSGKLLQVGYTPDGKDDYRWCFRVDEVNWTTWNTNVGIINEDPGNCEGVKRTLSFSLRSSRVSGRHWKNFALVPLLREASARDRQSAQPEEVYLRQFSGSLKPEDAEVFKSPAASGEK

This experiment has as its target T1, human capsaicin receptor (Homo sapiens, UniProt Q8NER1).
T1 construct: pBK-CMV expression construct encoding the full length human capsaicin receptor; expressed in transfected cells
Kind of experiment: Calcium mobilization assay, determination of antagonist activity (Example 6). Type of experiment: cell-based. Conditions: 50% decrease in fluorescence response of cells expressing human capsaicin receptor exposed to capsaicin. How it is done:
A cDNA encoding full length human capsaicin receptor (SEQ ID NO:1, 2 or 3 of U.S. Pat. No. 6,482,611) was subcloned in the plasmid pBK-CMV (Stratagene, La Jolla, Calif.) for recombinant expression in mammalian cells.
Human embryonic kidney (HEK293) cells were transfected with the pBK-CMV expression construct encoding the full length human capsaicin receptor using standard methods. The transfected cells were selected for two weeks in media containing G418 (400 μg/ml) to obtain a pool of stably transfected cells. Independent clones were isolated from this pool by limiting dilution to obtain clonal stable cell lines for use in subsequent experiments.
Cells transfected with expression plasmids (as described in Example 4) and thereby expressing human capsaicin receptor are seeded and grown to 70-90% confluency in FALCON black-walled, clear-bottomed 96-well plates (#3904, BECTON-DICKINSON, Franklin Lakes, N.J.). The culture medium is emptied from the 96 well plates and FLUO-3 AM calcium sensitive dye (Molecular Probes, Eugene, Oreg.) is added to each well (dye solution: 1 mg FLUO-3 AM, 440 μL DMSO and 440 μl 20% pluronic acid in DMSO, diluted 1:250 in Krebs-Ringer HEPES (KRH) buffer (25 mM HEPES, 5 mM KCl, 0.96 mM NaH2PO4, 1 mM MgSO4, 2 mM CaCl2, 5 mM glucose, 1 mM probenecid, pH 7.4), 50 μl diluted solution per well). Plates are covered with aluminum foil and incubated at 37° C. for 1-2 hours in an environment containing 5% CO2. After the incubation, the dye is emptied from the plates, and the cells are washed once with KRH buffer, and resuspended in KRH buffer.
To measure the ability of a test compound to agonize or antagonize a calcium mobilization response in cells expressing capsaicin receptors to capsaicin or other vanilloid agonist, the EC50 of the agonist capsaicin is first determined. An additional 20 μl of KRH buffer and 1 μl DMSO is added to each well of cells, prepared as described above. 100 μl capsaicin in KRH buffer is automatically transferred by the FLIPR instrument to each well. Capsaicin-induced calcium mobilization is monitored using either FLUOROSKAN ASCENT (Labsystems; Franklin, Mass.) or FLIPR (fluorometric imaging plate reader system; Molecular Devices, Sunnyvale, Calif.) instruments. Data obtained between 30 and 60 seconds after agonist application are used to generate an 8-point concentration response curve, with final capsaicin concentrations of 1 nM to 3 μM. KALEIDAGRAPH software (Synergy Software, Reading, Pa.) is used to fit the data to the equation: y=a*(1/(1+(b/x)^c)) to determine the 50% excitatory concentration (EC50) for the response. In this equation, y is the maximum fluorescence signal, x is the concentration of the agonist or antagonist (in this case, capsaicin), a is the Emax, b corresponds to the EC50 value and c is the Hill coefficient. Determination of Agonist Activity
Test compounds are dissolved in DMSO, diluted in 20 μl KRH buffer so that the final concentration of test compounds in the assay well is between 1 μM and 5 μM, and added to cells prepared as described above. The 96 well plates containing prepared cells and test compounds are incubated in the dark, at room temperature for 0.5 to 6 hours. It is important that the incubation not continue beyond 6 hours. Just prior to determining the fluorescence response, 100 μl capsaicin in KRH buffer at twice the EC50 concentration determined as described above is automatically added by the FLIPR instrument to each well of the 96 well plate for a final sample volume of 200 μl and a final capsaicin concentration equal to the EC50. The final concentration of test compounds in the assay wells is between 1 μM and […]. […] The concentration of antagonist required to provide a 50% decrease, relative to the response observed in the presence of capsaicin and without antagonist, is the IC50 for the antagonist, and is preferably below 1 micromolar, 100 nanomolar, 10 nanomolar or 1 nanomolar.
(In general: Calcium flux is commonly read through the fluorescence of an indicator in the cells.)
In general, IC50 refers to the concentration at which inhibition is half-maximal. Take `FC(F)(F)c1ccc(Nc2nc(N3CCOCC3)nc(N3CCN(c4ncccc4C(F)(F)F)CC3)n2)cc1` [Compound 23, {4-Morpholin-4-yl-6-[4-(3-trifluoromethyl-pyridin-2-yl)-piperazin-1-yl]-[1,3,5]triazin-2-yl}-(4-trifluoromethyl-phenyl)-amine]: the half-inhibitory concentration (IC50) is at most 1 µM.

Regarding `CCN(CC)c1nc(Nc2ccc(F)c(F)c2)nc(N2CCN(c3ncccc3S(C)(=O)=O)C[C@H]2C)n1` [Compound 102, N-(3,4-Difluoro-phenyl)-N′,N′-diethyl-6-[4-(3-methanesulfonyl-pyridin-2-yl)-2-methyl-piperazin-1-yl]-[1,3,5]triazine-2,4-diamine (R)], the IC50 is at most 1 µM.

For `CCN(CC)c1nc(Nc2cccc(OC)c2)nc(N2CCN(c3ncccc3Cl)CC2)n1` [Compound 93, 6-[4-(3-Chloro-pyridin-2-yl)-piperazin-1-yl]-N,N-diethyl-N′-(3-methoxy-phenyl)-[1,3,5]triazine-2,4-diamine], the IC50 is at most 1 µM.

For `Fc1ccc(Nc2cc(N3CCOCC3)nc(N3CCN(c4ncccc4C(F)(F)F)CC3)n2)cc1` [Compound 105, (4-Fluoro-phenyl)-{6-morpholin-4-yl-2-[4-(3-trifluoromethyl-pyridin-2-yl)-piperazin-1-yl]-pyrimidin-4-yl}-amine], the IC50 is at most 1 µM.

Regarding `Fc1cccc(Nc2nc(N3CCCCC3)nc(N3CCN(c4ncccc4Cl)CC3)n2)c1` [Compound 70, {4-[4-(3-Chloro-pyridin-2-yl)-piperazin-1-yl]-6-piperidin-1-yl-[1,3,5]triazin-2-yl}-(3-fluoro-phenyl)-amine], the half-inhibitory concentration (IC50) is at most 1 µM.

As for `CCN(CC)c1nc(Nc2cccc(F)c2)nc(N2CCN(c3ncccc3Cl)CC2)n1` [Compound 71, 6-[4-(3-Chloro-pyridin-2-yl)-piperazin-1-yl]-N,N-diethyl-N′-(3-fluoro-phenyl)-[1,3,5]triazine-2,4-diamine], the 50% inhibitory concentration (IC50) was at most 1 µM.

With `Fc1ccc(Nc2cc(N3CCN(c4ncccc4C(F)(F)F)CC3)nc(CN3CCOCC3)n2)cc1F` [Compound 112, (3,4-Difluoro-phenyl)-{2-morpholin-4-ylmethyl-6-[4-(3-trifluoromethyl-pyridin-2-yl)-piperazin-1-yl]-pyrimidin-4-yl}-amine], the IC50 was at most 1 µM.

As to `Fc1ccc(Nc2nc(N3CCOCC3)nc(N3CCN(c4ncccc4Cl)CC3)n2)cc1F` [Compound 68, {4-[4-(3-Chloro-pyridin-2-yl)-piperazin-1-yl]-6-morpholin-4-yl-[1,3,5]triazin-2-yl}-(3,4-difluoro-phenyl)-amine], the IC50 is at most 1 µM.

With `CCCCc1ccc(-c2nc(Nc3ccc(C(F)(F)F)cc3)nc(N3CCN(c4ncccc4Cl)C[C@H]3C)n2)cc1` [Compound 115, {4-(4-Butyl-phenyl)-6-[4-(3-chloro-pyridin-2-yl)-2-methyl-piperazin-1-yl]-[1,3,5]triazin-2-yl}-(4-trifluoromethyl-phenyl)-amine], the 50% inhibitory concentration (IC50) was at most 1 µM.

Turning to `C[C@H]1CN(c2ncccc2C(F)(F)F)CCN1c1nc(Nc2ccc(C(F)(F)F)cc2)nc(-c2ccc(C(F)(F)F)cc2)n1` [Compound 14, [4-[2-Methyl-4-(3-trifluoromethyl-pyridin-2-yl)-piperazin-1-yl]-6-(4-trifluoromethyl-phenyl)-[1,3,5]triazin-2-yl]-(4-trifluoromethyl-phenyl)-amine (S)], the IC50 was at most 1 µM.

Take `FC(F)(F)c1ccc(Nc2nc(Cl)nc(N3CCN(c4ncccc4Cl)CC3)n2)cc1` [Compound 45, {4-Chloro-6-[4-(3-chloro-pyridin-2-yl)-piperazin-1-yl]-[1,3,5]triazin-2-yl}-(4-trifluoromethyl-phenyl)-amine]: the IC50 was at most 1 µM.

`Cc1ccc(Nc2nc(N3CCOCC3)nc(N3CCN(c4ncccc4C(F)(F)F)CC3)n2)cc1` [Compound 64, {4-Morpholin-4-yl-6-[4-(3-trifluoromethyl-pyridin-2-yl)-piperazin-1-yl]-[1,3,5]triazin-2-yl}-p-tolyl-amine]: the half-maximal inhibitory concentration (IC50) was at most 1 µM.

For `Clc1ccc(Nc2nc(N3CCOCC3)nc(N3CCN(c4ncccc4Cl)CC3)n2)cc1` [Compound 62, (4-Chloro-phenyl)-{4-[4-(3-chloro-pyridin-2-yl)-piperazin-1-yl]-6-morpholin-4-yl-[1,3,5]triazin-2-yl}-amine], the 50% inhibitory concentration (IC50) is at most 1 µM.

As to `CC(C)(C)c1ccc(Nc2nc(OCc3ccccc3C(F)(F)F)nc(N3CCN(c4ccccn4)CC3)n2)cc1` [Compound 11, (4-tert-Butyl-phenyl)-[4-(4-pyridin-2-yl-piperazin-1-yl)-6-(2-trifluoromethyl-benzyloxy)-[1,3,5]triazin-2-yl]-amine], the IC50 was at most 1 µM.

On to `CCN(CC)c1nc(Nc2ccc(F)cc2)nc(N2CCN(c3ccccn3)CC2)n1` [Compound 94, N,N-Diethyl-N′-(4-fluoro-phenyl)-6-(4-pyridin-2-yl-piperazin-1-yl)-[1,3,5]triazine-2,4-diamine], for which the IC50 is at most 1 µM.

As to `FC(F)(F)c1ccc(Nc2nc(N3CCOCC3)nc(N3CCN(c4ncccc4Cl)CC3)n2)cc1` [Compound 96, {4-[4-(3-Chloro-pyridin-2-yl)-piperazin-1-yl]-6-morpholin-4-yl-[1,3,5]triazin-2-yl}-(4-trifluoromethyl-phenyl)-amine], the IC50 is at most 1 µM.

Turning to `CC(C)N(C)c1nc(Nc2ccccc2)nc(N2CCN(c3ncccc3C(F)(F)F)CC2)n1` [Compound 55, N-Isopropyl-N-methyl-N′-phenyl-6-[4-(3-trifluoromethyl-pyridin-2-yl)-piperazin-1-yl]-[1,3,5]triazine-2,4-diamine], the IC50 was at most 1 µM.

For the compound `C[C@@H]1CN(c2ncccc2Cl)CCN1c1nc(NCc2cccc(C(F)(F)F)c2)nc(Nc2ccc(C(F)(F)F)cc2)n1` [Compound 37, 6-[4-(3-Chloro-pyridin-2-yl)-2-methyl-piperazin-1-yl]-N-(3-trifluoromethyl-benzyl)-N′-(4-trifluoromethyl-phenyl)-[1,3,5]triazine-2,4-diamine (R)], the half-maximal inhibitory concentration (IC50) was at most 1 µM.

Regarding `CC(C)N(C)c1nc(Nc2cccc(F)c2)nc(N2CCN(c3ncccc3Cl)CC2)n1` [Compound 79, 6-[4-(3-Chloro-pyridin-2-yl)-piperazin-1-yl]-N-(3-fluoro-phenyl)-N′-isopropyl-N′-methyl-[1,3,5]triazine-2,4-diamine], the IC50 was at most 1 µM.

In the case of `CNc1nc(Nc2ccc(C(F)(F)F)cc2)nc(N2CCN(c3ncccc3Cl)CC2)n1` [Compound 46, 6-[4-(3-Chloro-pyridin-2-yl)-piperazin-1-yl]-N-methyl-N′-(4-trifluoromethyl-phenyl)-[1,3,5]triazine-2,4-diamine], the IC50 is at most 1 µM.

On to `C[C@@H]1CN(c2ncccc2Cl)CCN1c1nc(Nc2ccc(C(F)(F)F)cc2)nc(OCc2ccccc2C(F)(F)F)n1` [Compound 8, [4-[4-(3-Chloro-pyridin-2-yl)-2-methyl-piperazin-1-yl]-6-(2-trifluoromethyl-benzyloxy)-[1,3,5]triazin-2-yl]-(4-trifluoromethyl-phenyl)-amine (R)], for which the IC50 is at most 1 µM.

As to `Cc1ccc(Nc2cc(N3CCOCC3)nc(N3CCN(c4ncccc4C(F)(F)F)CC3)n2)cc1` [Compound 106, {6-Morpholin-4-yl-2-[4-(3-trifluoromethyl-pyridin-2-yl)-piperazin-1-yl]-pyrimidin-4-yl}-p-tolyl-amine], the IC50 is at most 1 µM.

For the origin of these results see patent US20070043049A1, “Substituted heterocyclic diarylamine analogues” (Neurogen Corporation, priority 2003, published 2007).
